Test results taken from PMC11211886 (Frontiers in Pharmacology, 2024).
Converted amounts (≈) assume the structure as drawn. Read-outs that look alike come from different tables or passages of the source.

What was measured:
[1] = Metabolic stability in mouse liver microsomes; assay type: in vitro ADME
Method: FMO was deactivated by heating liver microsomes at 45°C for 5 min. […] (1) metabolic clearance is the major mechanism of clearance; (2) liver is the major organ of clearance; and (3) oxidation is the major metabolic pathway. CLint,in vitro=k / Cmicrosomes , Scaled CLint,in vivo=CLint,in vitro×microsomes yield×liver weight, where Cmicrosomes means the experimental protein concentration (0.5 mg/mL) in the incubation system.

CYP2B6 = target: T1, CYP2B6 (Homo sapiens, UniProt P20813); assay: Time-dependent CYP inhibition in HLM, CYP2B6; assay type: in vitro ADME; conditions: 10 μM, 30 min pre-incubation with NADPH
T1 construct: tissue Life Technologies (Durham, NC, USA); host or cells: human liver microsomes
T1 sequence (P20813 1-491): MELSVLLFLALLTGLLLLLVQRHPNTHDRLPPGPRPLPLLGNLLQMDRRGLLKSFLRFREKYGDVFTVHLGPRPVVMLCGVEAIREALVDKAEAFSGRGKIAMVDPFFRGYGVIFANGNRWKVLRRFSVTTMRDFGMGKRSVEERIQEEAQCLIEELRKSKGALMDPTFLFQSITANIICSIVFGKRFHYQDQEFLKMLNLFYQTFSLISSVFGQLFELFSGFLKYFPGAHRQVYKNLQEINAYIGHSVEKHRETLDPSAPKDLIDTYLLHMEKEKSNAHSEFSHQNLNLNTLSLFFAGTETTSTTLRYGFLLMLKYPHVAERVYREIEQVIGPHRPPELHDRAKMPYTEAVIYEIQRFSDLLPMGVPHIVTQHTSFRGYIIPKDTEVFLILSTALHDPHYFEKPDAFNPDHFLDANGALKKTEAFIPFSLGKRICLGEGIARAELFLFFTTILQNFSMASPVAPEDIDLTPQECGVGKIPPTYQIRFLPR
Method: (§1) The procedure of time-dependent CYP inhibition was similar to that used for CYP reversible inhibition, as mentioned above, except that a pre-incubation step was added. […] Another appropriate volume of the NADPH-regenerating system and probe substrate were added to initiate the CYP isoform enzyme activity test step. For this step, the incubation period was 10 min, except for CYP2B6, CYP2C8, and CYP3A4/5 (probe substrate: midazolam), which was 3 min to make sure the reaction was under initial linear rates. After incubation for the designated time periods at 37°C, the ice-cold acetonitrile containing IS was added to quench the reaction. […] (Ainactivator/[…] represents the enzyme activity remaining due to the inhibition by the diluted inactivator in the enzyme activity test step, and (Ainactivator/[…] represents the remaining enzyme activity due to pre-incubation loss plus inhibition by the diluted inactivator in the enzyme activity test step.

CYP2C8 = target: T2, CYP2C8 (Homo sapiens, UniProt P10632); assay: Time-dependent CYP inhibition in HLM, CYP2C8; assay type: in vitro ADME; conditions: 10 μM, 30 min pre-incubation with NADPH
T2 construct: tissue Life Technologies (Durham, NC, USA); host or cells: human liver microsomes
T2 sequence (P10632 1-490): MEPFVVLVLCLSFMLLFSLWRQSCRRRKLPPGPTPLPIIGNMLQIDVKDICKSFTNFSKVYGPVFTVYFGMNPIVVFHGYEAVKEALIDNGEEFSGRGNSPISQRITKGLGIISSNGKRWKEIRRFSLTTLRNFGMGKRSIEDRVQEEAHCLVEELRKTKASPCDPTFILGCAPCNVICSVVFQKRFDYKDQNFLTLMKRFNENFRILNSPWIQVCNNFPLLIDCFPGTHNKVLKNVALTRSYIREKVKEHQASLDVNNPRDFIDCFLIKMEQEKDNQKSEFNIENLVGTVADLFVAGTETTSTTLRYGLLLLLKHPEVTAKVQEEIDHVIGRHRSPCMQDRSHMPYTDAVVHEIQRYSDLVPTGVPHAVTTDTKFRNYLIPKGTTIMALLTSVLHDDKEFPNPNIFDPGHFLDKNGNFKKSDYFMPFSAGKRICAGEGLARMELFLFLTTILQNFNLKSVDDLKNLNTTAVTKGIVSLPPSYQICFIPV
Method: as §1

CYP1A2 mRNA = assay: in vitro; conditions: human; for EC50 at 48 h: EC50, CYP1A2 expression
Method: (§2) […] […] […] Enzyme activity for each CYP isoform was reported as a fold change over vehicle control and the percent of positive control (detailed calculation in Supplementary 1.1). Hepatocytes were harvested with a lysis buffer from RNeasy 96 Kit (Qiagen Inc., Germantown, MD, USA) to isolate RNA, which was analyzed by real-time quantitative polymerase chain reaction (RT-PCR). […] Emax (the maximal observed induction) and EC50 (the concentration that supports half-maximal induction) were estimated by non-linear regression of fold increase in CYP mRNA expression versus concentration plots.
(§3) % of positive control = [(fold change in treated sample)-1] / [(fold change in positive control)-1] × 100
(§4) Based on the gene expression, a minimum of 4-fold increase of positive control compared to vehicle control, a minimum of 2-fold increase of the test article compared vehicle control and increased in a concentration-dependent manner was considered as the cutoff for a positive signal in in vitro induction assay.

CYP2C8 mRNA = assay: CYP induction in human hepatocytes, CYP2C8 mRNA (RT-PCR)
Method: as §2, §3, §4

CYP3A4 mRNA = assay: CYP induction in human hepatocytes, CYP3A4 mRNA (RT-PCR); assay type: in vitro ADME
Method: as §2, §3

[2] = Cytotoxicity on human hepatocytes in induction assay; assay type: cell-based; conditions: 20 μM, CYP2C induction evaluation (data not shown)
Method: as §2

Solubility = assay type: physicochemical; conditions: water, pH 7.78
[3] = male, ICR, mouse, in vivo, iv

## C[C@H](Nc1ncnc(N)c1C#N)c1cc2ncc(Cl)n2nc1-c1ccccc1 [Amdizalisib]
[1]; female, mouse, microsomes, pH 7.4, Predicted CL int, iv vivo
  CLint scaled at 1 µM: 52.8 mL/min/kg
[1]; female, mouse, microsomes, pH 7.4, in vitro t1/2
  half-life at 1 µM: 1.7 h
[1]; male, mouse, microsomes, pH 7.4, Predicted CL int, iv vivo
  CLint scaled at 1 µM: 50.4 mL/min/kg
[1]; male, mouse, microsomes, pH 7.4, in vitro t1/2
  half-life at 1 µM: 1.8 h
[1]; pH 7.4, female mouse liver microsomes, FMO deactivation, read-out: in vitro t1/2
  half-life at 1 µM: 1.72 h
[1]; pH 7.4, female mouse liver microsomes, normal, read-out: Predicted CL int, iv vivo
  CLint scaled at 1 µM: 53.6 mL/min/kg
CYP2B6
  activity loss of CYP2B6: less than 10%
CYP2C8
  activity loss of CYP2C8: less than 10%
CYP1A2 mRNA; both, hepatocytes, 48 h, 20 µM
  induction on CYP1A2 mRNA expression: >2-fold induction on CYP1A2, 2B6, 3A4, 2C9 mRNA expression at 20 uM
CYP1A2 mRNA; female
  EC50 at 48 h: 9.57 µM
CYP1A2 mRNA; male, 48 h, 1 µM
  Gene expression Percent of PC (%): 3.60%
CYP1A2 mRNA; male, 48 h, 3 µM
  Gene expression Percent of PC (%): 0.30%
CYP1A2 mRNA; male, 48 h, 10 µM
  Gene expression Percent of PC (%): 10.7%
CYP1A2 mRNA; male, 48 h, 20 µM
  Gene expression Percent of PC (%): 8.20%
CYP1A2 mRNA; male, 48 h, 30 µM
  Gene expression Percent of PC (%): 14.2%
CYP1A2 mRNA; male
  EC50 at 48 h: 7.73 µM
CYP2C8 mRNA; CYP 2C8, donor four, 3 µM
  Gene expression Percent of PC (%): 14.5%
CYP2C8 mRNA; female, human, 48 h, 0.3 µM
  Gene expression Percent of PC (%): 7.24%
CYP2C8 mRNA; female, human, 48 h, 3 µM
  Gene expression Percent of PC (%): 13.5%
CYP2C8 mRNA; female, human, 48 h, 20 µM
  Gene expression Percent of PC (%): 3.97%
CYP2C8 mRNA; male, human, 48 h, 3 µM
  Gene expression Percent of PC (%): 9.01%
CYP3A4 mRNA
  R3 value (CYP3A4 induction, basic kinetic model): ≤ 0.8
CYP3A4 mRNA; 20 uM
  induction on CYP3A4 mRNA expression: >2-fold induction on CYP1A2, 2B6, 3A4, 2C9 mRNA expression at 20 uM
CYP3A4 mRNA; CYP3A4, donor seven, 1 µM
  Gene expression Percent of PC (%): 8.40%
CYP3A4 mRNA; CYP3A4, donor seven, 3 µM
  Gene expression Percent of PC (%): 2.70%
CYP3A4 mRNA; CYP3A4, donor seven, 10 µM
  Gene expression Percent of PC (%): 46.6%
CYP3A4 mRNA; CYP3A4, donor seven, 20 µM
  Gene expression Percent of PC (%): 23.3%
CYP3A4 mRNA; CYP3A4, donor seven, 30 µM
  Gene expression Percent of PC (%): 53.6%
CYP3A4 mRNA; CYP3A4, donor six, 1 µM
  Gene expression Percent of PC (%): 1.00%
CYP3A4 mRNA; CYP3A4, donor six, 3 µM
  Gene expression Percent of PC (%): 1.60%
CYP3A4 mRNA; CYP3A4, donor six, 10 µM
  Gene expression Percent of PC (%): 11.9%
CYP3A4 mRNA; CYP3A4, donor six, 20 µM
  Gene expression Percent of PC (%): 21.4%
CYP3A4 mRNA; CYP3A4, donor six, 30 µM
  Gene expression Percent of PC (%): 21.9%
CYP3A4 mRNA; CYP3A4, donor two, 1 µM
  Gene expression Percent of PC (%): 1.30%
CYP3A4 mRNA; CYP3A4, donor two, 3 µM
  Gene expression Percent of PC (%): 0.60%
CYP3A4 mRNA; CYP3A4, donor two, 10 µM
  Gene expression Percent of PC (%): 15.9%
CYP3A4 mRNA; CYP3A4, donor two, 20 µM
  Gene expression Percent of PC (%): 13.4%
CYP3A4 mRNA; CYP3A4, donor two, 30 µM
  Gene expression Percent of PC (%): 28.1%
CYP3A4 mRNA; donor seven
  Emax, CYP3A4 expression: 6.97 fold
CYP3A4 mRNA; donor six
  Emax, CYP3A4 expression: 35.7 fold
CYP3A4 mRNA; donor two
  Emax, CYP3A4 expression: > 26.5 fold
[2]
  cytotoxic effect on cell viability: exhibited cytotoxicity against human hepatocytes in one donor
Solubility
  solubility: 25 µg/mL (≈ 64 µM)
[3]
  CL as % of the hepatic blood flow: 16.3%
